Laboratory results taken from patent US10947243B2, “Heteroaryl SYK inhibitors” (Boehringer Ingelheim International GmbH, priority 2014, dated 2021).
Like-named read-outs stand apart in the source and are kept apart here.

Experiments:
[1] = target: Recombinant human Syk (amino acids 342-635) (Homo sapiens (Human), UniProt P43405); test: Syk Kinase Test (Kinase Glo luminescence); format: biochemical
Protocol: (§1) The output file of the reader is a csv file that contains the well number and measured relative light units (RLU). For data evaluation and calculation, the measurement of the negative control was set as 100% ctrl and the measurement of the positive control was set as 0% ctrl. Based on this values the % value for the measurement of each substance concentration was calculated using an Assay Explorer software (Accelrys). Normally, the % ctrl values calculated are between 0% and 100% values but may also occur outside these limits in individual cases based on variability or compound characteristics. The IC50 values were calculated from the % ctrl values using Assay Explorer software. Calculation: [y=(a−d)/(1+(x/c)^b)+d] a=low value, d=high value; x=conc M; c=IC50 M; b=hill; y=% ctrl.

[2] = target: Recombinant human Aurora B (amino acids 1-344) (Homo sapiens (Human), UniProt Q96GD4); test: Aurora B Kinase Test (ADP Glo luminescence); format: biochemical
Protocol: The activity of the Aurora B kinase protein was determined using the ADP Glo® Luminescence Kinase test (Promega; V9103X).
Serial Dilution is done in 1:10 steps in 100% DMSO.
Then 20 μl Kinase detection mix (Detection Buffer #V913B Promega; Kinase Detection Substrate #V914B Promega) were added and incubated for 40 minutes at room temperature.
as §1, with “measured RLU.” for “measured relative light units (RLU).”, “as 0%” for “as 100%”, “as 100%” for “as 0%”, “Calculation: [y=(a−d)/(1+(x/c)^b)+d],” for “Calculation: [y=(a−d)/(1+(x/c)^b)+d]”

FLT3 = FLT3 (Homo sapiens (Human), UniProt P36888); test: FLT3 Kinase Test (Z'-LYTE); format: biochemical
Protocol: The activity of FLT3 is measured using the Z′-LYTE™ assay technology from Invitrogen (#PV3191)
The reaction is started by addition of 2.5 μl of the 4×ATP solution.
(§2) Positive controls are reaction mixtures containing no test compound; negative controls (blanks) are reaction mixtures containing no kinase. As a further control, the phosphopeptide solution is added to wells without kinase (=100% phosphorylation control).
The reaction is performed for 1 h at room temperature before 5 μl of the development solution is added. After a further incubation for 1 h at room temperature 5 μl of the stop reagent is added.
The output text file is evaluated in an “MS-Excel-VB-Makro” and “GraphPadPrism” (Version 5) (GraphPad Software Inc.) is used to calculate the results. Data for the inhibition of FLT3 are reported in M. data for the inhibition of the protease are reported in % CTL.

Human GSK3beta = Human GSK3beta (Homo sapiens (Human), UniProt P49841); test: GSK 3β Kinase-Test (Z'-LYTE); format: biochemical; settings: comparison compounds, Example numbers of WO 2013/014060; read-out: IC50 in μM (GSK3beta-Inhibition)
Protocol: Human GSK3beta (expressed and prified from SF21 cells) is obtained from the University Dundee/Scotland (Dr. James Hastie—Dept. of Biochemistry) in 50 mM Tris (pH7.5); 150 mM NaCl; 0.1 mM EGTA, 270 mM Succrose, 0.1% B-mercaptoethanol, 1 mM benzamidine, 0.2 mM PMSF; sequence see below). The enzyme is diluted to 3.56 μM (168 μg/ml) in enzyme dilution buffer and 6 μl aliquots are stored at −80° C.
The activity of GSK3 kinase protein is measured using the Z′-LYTE™ assay technology from Invitrogen (# PV3324).
The assay is performed in 384 black plates from Corning (#3676) in a final volume of 10 μl by adding 5 μl of kinase peptide mix and 2.5 μl of compound dilution. The reaction is started by addition of 2.5 μl of the 4×ATP solution.
as §2, with “ATP.” for “kinase.”, “kinase and without ATP” for “kinase”, “control). The non inhibited kinase reaction will result in a phosphorylation corresponding to 20%-30% of the phosphorylation control.” for “control).”
The reaction is performed 1 h at room temperature. After 1 h 5 μl of the development solution is added. After a further incubation for 1 h at room temperature 5 μl of the stop reagent is added. Finally the plates are read on a Flex Station II 384 (Molecular Devices).
The output text file is evaluated in an “MS-Excel-VB-Makro” and “GraphPadPrism” (Version 5) (GraphPad Software Inc.) is used to calculate the results. Data for the inhibition of GSK3beta are reported in M. data for the inhibition of the protease are reported in % CTL.

[3] = Human Liver Microsomal Stability Test; format: in vitro ADME; settings: human liver microsomes
Protocol: The metabolic degradation for a specific SYK-inhibitor is performed at 37° C. with pooled human liver microsomes (human liver microsomes are commercially available as “BD UltraPool™” by Corning Life Sciences, Fogostraat 12, 1060 LJ Amsterdam, The Netherlands). The final incubation volume of 100 μl per time point contains TRIS buffer pH 7.6 at RT (0.1 M), magnesium chloride (5 mM), microsomal protein (1 mg/ml) and the test compound at a final concentration of 1 μM.
Following a short preincubation period at 37° C., the reaction is initiated by addition of beta-nicotinamide adenine dinucleotide phosphate in its reduced form (NADPH, 1 mM) and terminated by transfering an aliquot into solvent after different time points. Additionally, the NADPH-independent degradation is monitored in incubations without NADPH, terminated at the last time point.
The quenched (terminated) incubations are then pelleted by centrifugation (10000 g, 5 min).
An aliquot of the supernatant is assayed by LC-MS/MS for the remaining amount of parent compound. The half-life (t½ INVITRO) is determined by the slope of the semilogarithmic plot of the concentration-time profile.
The intrinsic clearance (CL_[…]) is calculated by considering the amount of protein in the incubation: CL_[…] [μl/min/mg protein]=(Ln 2/(t½INVITRO [min]*protein content [mg/ml]))*1000
The protein content [mg/ml] was determined with the “Bicinchoninic Acid Kit” of Sigma Aldrich (commercially available).
The upscaled intrinsic Clearance (CL_UP_INT) is calcuated by considering the liver weight [g liver/kg body weight] and the microsomal recovery [mg protein/g liver]: CL_UP_INT [ml/min/kg]=0.001*CL_[…]*liver weight*microsomal recovery • with microsomal recovery=45 mg protein/g liver • with liver weight=25.7 g liver/kg body weight
The percent hepatic blood flow (% Qh) is finally calculated by considering the human liver blood flow Q [ml/min/kg]: % Qh [%]=((Q*CL_UP_INT)/(Q+CL_UP_INT)/Q)*100 • with liver blood flow (Q)=20.7 ml/min/kg.

[4] = comparison compounds, Example numbers of WO 2013/014060, read-out: IC50 in μM (SYK-Inhibition)
[5] = comparison compounds, Example numbers of WO 2013/014060, read-out: IC50 in μM (AURB-Inhibition)
[6] = comparison compounds, Example numbers of WO 2013/014060, read-out: IC50 in μM (FLT3-Inhibition)
[7] = comparison compounds, Example numbers of WO 2013/014060
[8] = compounds of the invention (own Example numbers)

Sequence of Recombinant human Aurora B (amino acids 1-344) (Q96GD4 whole entry, the tested form may be a part): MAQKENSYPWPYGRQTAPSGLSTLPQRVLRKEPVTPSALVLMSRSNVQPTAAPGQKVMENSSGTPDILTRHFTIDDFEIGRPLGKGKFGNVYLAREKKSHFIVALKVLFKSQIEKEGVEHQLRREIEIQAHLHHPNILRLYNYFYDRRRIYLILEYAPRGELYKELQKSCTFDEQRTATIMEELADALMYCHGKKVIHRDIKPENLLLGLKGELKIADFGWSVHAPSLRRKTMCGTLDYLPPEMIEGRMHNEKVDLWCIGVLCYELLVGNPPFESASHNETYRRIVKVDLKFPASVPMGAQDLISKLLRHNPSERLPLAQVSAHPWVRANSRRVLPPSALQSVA
Sequence of Human GSK3beta (P49841 whole entry): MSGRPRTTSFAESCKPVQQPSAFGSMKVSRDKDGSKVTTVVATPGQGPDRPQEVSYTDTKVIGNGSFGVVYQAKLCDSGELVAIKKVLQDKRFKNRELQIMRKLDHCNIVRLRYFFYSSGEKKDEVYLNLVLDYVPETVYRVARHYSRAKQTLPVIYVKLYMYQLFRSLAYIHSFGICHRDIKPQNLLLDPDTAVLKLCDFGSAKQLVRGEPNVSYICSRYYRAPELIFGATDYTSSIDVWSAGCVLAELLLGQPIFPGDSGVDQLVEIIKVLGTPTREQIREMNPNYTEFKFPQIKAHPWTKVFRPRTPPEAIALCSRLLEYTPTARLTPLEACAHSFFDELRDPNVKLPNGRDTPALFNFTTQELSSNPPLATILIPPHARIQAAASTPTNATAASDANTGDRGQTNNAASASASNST
Sequence of FLT3 (P36888 564-958): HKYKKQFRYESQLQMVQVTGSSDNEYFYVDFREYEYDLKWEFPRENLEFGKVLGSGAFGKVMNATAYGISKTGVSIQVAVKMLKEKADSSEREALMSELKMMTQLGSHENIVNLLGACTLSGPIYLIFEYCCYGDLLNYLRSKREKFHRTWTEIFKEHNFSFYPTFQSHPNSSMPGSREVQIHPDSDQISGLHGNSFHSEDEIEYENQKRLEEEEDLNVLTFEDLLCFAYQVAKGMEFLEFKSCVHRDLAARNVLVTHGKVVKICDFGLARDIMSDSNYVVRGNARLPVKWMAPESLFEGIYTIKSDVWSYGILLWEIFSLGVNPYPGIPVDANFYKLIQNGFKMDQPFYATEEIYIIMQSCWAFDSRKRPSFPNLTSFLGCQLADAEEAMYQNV

| Compound | IC50 [1, 4] [µM] | IC50 [2, 5] [µM] | IC50 (FLT3; [6]) [µM] | IC50 (Human GSK3beta) [µM] | microsomal stability Cl [% Qh] [3, 7] [% Qh] | also measured |
| --- | --- | --- | --- | --- | --- | --- |
| C[C@@H](Oc1nc(-c2cc3nn(C)cc3c(O[C@H](C)[C@H]3CNC(=O)C3)n2)cc2nn(C)cc12)[C@@H]1CNC(=O)C1 [Example 11, (4S)-4-[(1R)-1-[2-methyl-6-[2-methyl-4-[(1R)-1-[(3R)-5-oxopyrrolidin-3-yl]ethoxy]-pyrazolo[4,3-c]pyridin-6-yl]pyrazolo[4,3-c]pyridin-4-yl]oxyethyl]pyrrolidin-2-one] | 0.002 | 0.752 | 0.738 | > 10 | 24 |  |
| C[C@@H](Oc1cc(-c2cscn2)cc2nn(C)cc12)[C@H]1CNC(=O)C1 [Example 29, (4R)-4-[(1R)-1-(2-methyl-6-thiazol-4-yl-indazol-4-yl)oxyethyl]pyrrolidin-2-one] |  |  |  | > 10 | 44 | IC50 ([2]; read-out: AURB-inhibition IC50-value): > 50 µM; IC50 ([2]; read-out: IC50 in μM (AURB-Inhibition)): 0.293 µM |
| C[C@@H](Oc1nc(-c2ccc(C(F)(F)F)nc2)cc2nn(C)cc12)[C@H]1CNC(=O)C1 [Example 61, (4R)-4-[(1R)-1-[2-methyl-6-[6-(trifluoromethyl)-3-pyridyl]pyrazolo[4,3-c]pyridin-4-yl]oxyethyl]pyrrolidin-2-one] | 0.002 | 0.25 | 0.411 |  | <23 | microsomal stability Cl [% Qh] ([3]; percent hepatic blood flow): <23 % Qh |
| (4R)-4-[(1R)-1-[2-methyl-6-(3-methyl-1-tetrahydropyran-4-yl-pyrazol-4-yl)pyrazolo-[4,3-c]pyridin-4-yl]oxyethyl]-pyrrolidin-2-one [Example 79] |  |  |  |  |  | IC50 ([1]; read-out: SYK-inhibiton IC50-value): 0.0364 µM; IC50 (FLT3; read-out: FLT3-inhibition IC50-value): 26.7 µM |
| C[C@@H](Oc1nc(-c2cnn(C3CCC(F)(F)CC3)c2)cc2nn(C)cc12)[C@H]1CNC(=O)C1 [Example 10, (4R)-4-[(1R)-1-[6-[1-(4,4-Difluorocyclohexyl)pyrazol-4-yl]-2-methyl-pyrazolo[4,3-c]pyridin-4-yl]oxyethyl]pyrrolidin-2-one] | 0.001 | 0.271 | 0.312 | > 10 | 57 |  |
| Cc1c(-c2cc(O[C@H](C)[C@H]3CNC(=O)C3)c3cccnc3c2)cnn1C [compound 112] | 0.006 | 2.96 | 1.25 | > 10 | <23 |  |
| COc1ccc(-c2cc3nn(C)cc3c(O[C@H](C)[C@H]3CNC(=O)C3)n2)cc1OC [Example 1, (4R)-4-[(1R)-1-[6-(3,4-Dimethoxyphenyl)-2-methyl-pyrazolo[4,3-c]pyridin-4-yl]oxyethyl]pyrrolidin-2-one] |  |  |  |  |  | IC50 ([1]; comparison compounds, Example numbers of WO 2011/092128, read-out: IC50 in μM (SYK-Inhibition)): 0.009 µM; IC50 ([2]; comparison compounds, Example numbers of WO 2011/092128, read-out: IC50 in μM (AURB-Inhibition)): 5.09 µM; IC50 (FLT3; comparison compounds, Example numbers of WO 2011/092128, read-out: IC50 in μM (FLT3-Inhibition)): 1.53 µM; microsomal stability Cl [% Qh] [3, 8]: <23 % Qh |
| CCCn1cc(-c2cc(O[C@H](C)[C@H]3CNC(=O)C3)c3cccnc3c2)cn1 [compound 114] |  | 2.54 | 0.049 | > 10 | 26 |  |
| C[C@@H](Oc1cc(-c2ccc(F)cn2)cc2nn(C)cc12)[C@H]1CNC(=O)C1 [Example 41, (4R)-4-[(1R)-1-[6-(5-fluoro-2-pyridyl)-2-methyl-indazol-4-yl]oxyethyl]pyrrolidin-2-one] | 0.001 | 0.308 | 0.505 |  | 37 | microsomal stability Cl [% Qh] ([3]; percent hepatic blood flow): <23 % Qh |
| COc1cc(-c2cc3nn(C)cc3c(O[C@H](C)[C@H]3CNC(=O)C3)n2)ccc1OC(C)C [Example 81, (4R)-4-[(1R)-1-[6-(4-isopropoxy-3-methoxy-phenyl)-2-methyl-pyrazolo-[4,3-c]pyridin-4-yl]oxyethyl]-pyrrolidin-2-one] | 0.003 | 0.949 | 0.514 |  | <23 | microsomal stability Cl [% Qh] [3, 8]: <23 % Qh |
| C[C@@H](Oc1cc(-c2ccc(C3CCN(C)CC3)cc2)cc2nn(C)cc12)[C@H]1CNC(=O)C1 [Example 42, (4R)-4-[(1R)-1-[2-methyl-6-[4-(1-methyl-4-piperidyl)-phenyl]indazol-4-yl]oxyethyl]-pyrrolidin-2-one] | 0.002 | 0.63 | 0.618 |  | <23 | microsomal stability Cl [% Qh] ([3]; percent hepatic blood flow): <23 % Qh |
| C[C@@H](Oc1nc(-c2cnn(C(C)(C)C)c2)cc2nn(C)cc12)[C@H]1CNC(=O)C1 [Example 2, (4R)-4-[(1R)-1-[6-(1-tert-Butylpyrazol-4-yl)-2-methyl-pyrazolo[4,3-c]pyridin-4-yl]oxyethyl]pyrrolidin-2-one] | 0.007 | 16.9 | 7.39 |  | 81 | microsomal stability Cl [% Qh] [3, 8]: <23 % Qh |
